Measurements from patent publication US20250152731A1, “ANTI-TROP2 ANTIBODY COMBINATION THERAPIES AND METHODS OF USE THEREOF” (priority 2021, published 2025).

Tests used:
SLFN11 = assay: Immunoblotting of SLFN11 in breast cancer cell lines; format: cell-based, human; conditions: BCX-010CL, HCC-1937, HCC-1143, MDA-MB-157; 1 μM for 3 days; FIG. 10A
Description: (§1) Following treatments, cells were washed with cold PBS and lysed in 1× Laemmli buffer. The protein concentrations in the cell lysates were measured using Pierce BCA protein assay Kit (ThermoFisher). The same amount protein for each sample (20-50 μg/lane) was loaded to SDS-PAGE gel, followed by transferring proteins to a 0.2 μm nitrocellulose membrane (Bio-Rad Laboratories). Membranes were blocked with blocking buffer Blocker Casein in PBS (ThermoFisher) at room temperature for 1 hour, followed by immunoblotting with the primary antibodies in 5% BSA TBST buffer at room temperature overnight. After washing with TBST buffer, the immunoblotting membrane was then probed with the secondary antibodies with fluorescence conjugation. The immunoblots were visualized and the immunoblotting signal intensity quantitated using the Odyssey IR imaging system (Li-Cor Biosciences).

Sum-159 cells = assay: Colony formation assay, Sum-159; format: cell-based, human; conditions: sacituzumab govitecan 200 nM, decitabine 200 nM
Description: FIGS. 6A-6E show a colony assay of BCX-010 (FIGS. 6A-6B), BCX-011 (FIG. 6C-6D), and Sum-159 cells ([…]) after treatment with vehicle, sacituzumab govitecan (200 nM), and/or decitabine (200 nM) for 10 days. FIGS. 6A-6C show agar plates after 10 days of colony formation.
In order to determine the effect of decitabine treatment on sacituzumab govitecan activity, colony formation assays were performed in BCX-010 cells (FIGS. 6A-6B), BCX-011 cells (FIG. 6C-6D), and Sum-159 breast cancer cells (FIG. 6E-6F).
Cells were seeded in 6-well plates at a density of 1000 cells per well in triplicates for each treatment group. Next day, cells were treated with single drugs, or combination at the different concentrations. Culture medium was changed with fresh drugs twice a week. Cells were cultured for 3 weeks. Cell colonies were then fixed in 10% formalin and stained with 0.05% crystal violet in 25% methanol. The stained colonies were imaged and total colony area was quantitated using NIH ImageJ v.1.48 software. Effect-based Combination Index (CI) was calculated by inhibition percentage of single drug and combination treatments using Bliss combination model. CI=((EA+EB)−(EA*EB))/EAB, where EA, EB, and EAB are effects of drug A, B and combination AB inhibition percentage. Here the effect is inhibition percentage of colony formation compared to vehicle controls. […]

TROP2 mRNA = assay: Quantitative RT-PCR of TROP2 mRNA; format: cell-based, human; conditions: decitabine 1 μM, three days; BCX-010 (control or Zeb1 shRNA) and Sum-159 cells
Description: Following treatments, cells were lysed and total RNA was extracted using GeneJet RNA Purification Kit (ThermoFisher) according to manufacturer's manual. cDNA was synthesized from RNA using High-Capacity RNA-to-cDNA Kit (ThermoFisher) following manufacturer's manual. DNA amount in cDNA samples were quantitated using Qubity dsDNA Kit (ThermoFisher). Real time PCR was performed with the same amount DNA from each sample using TaqMan Universal PCR Master Mix Kit (ThermoFisher), under the PCR conditions: 50° C., 2 minutes; 95° C., 10 minutes; [95° C., 15 seconds, 60° C., 1 minutes]×35 cycles. Fold changes of mRNA expression levels were calculated using formula 2^rrCT (rrCT: cycle threshold of treatment group-cycle threshold of control group).
BCX-010 cells (FIG. 2A) and Sum-159 cells (FIG. 2B) were treated decitabine (1 μM), panobinostat (20 nM), or DMSO for three days. Total RNA was extracted from the treated cells using GeneJet RNA kit, followed by reverse transcription using High Capacity RNA-to-cDNA kit. cDNAs were quantitated using Qubit DNA kit. Quantitative real time PCR (qPCR) was performed using Taqman Universal PCR Master Mix kit with a TROP2 probe. Relative TROP2 levels were obtained by normalization with GAPDH. Additionally, BCX-010CL cells were treated with shRNA control or ZEB1 shRNA (FIG. 2C).

E-cadherin = assay: Immunoblotting of E-cadherin in breast cancer cell lines; format: cell-based, human; conditions: BCX-010CL cells
Description: as §1
(§2) Breast cancer cell lines BCX-010CL, BCX-011CL, and SUM159 cells were treated with decitabine, azacytidine, panobinostat, vorinostat, tazemetostat at […] respectively for 3 days, followed by immunoblotting for E-cad and TROP2 with β-actin as control (FIG. 1D).
(§3) The treated cells were lysed. The cell lysate samples were loaded onto SDS-PAGE gel for the western blot. Antibodies ab-214488 and cst-3195 were used to detect TROP2 and E-cadherin respectively. β-actin was used as loading control (FIG. 1C).

BCX-010CL cells = assay: Cell survival assay of SN-38 with or without decitabine; format: cell-based, human; conditions: decitabine co-treatment, 3 days, FIG. 10B
Description: BCX-010CL cells were treated with SN-38 at serial dilutions, with or without decitabine co-treatment for 3 days. IC50s of individual agents and combination index were calculated.
BCX-010CL cells were also treated with SN-38 at serial dilutions, with or without decitabine co-treatment for 3 days. IC50s of individual agents and combination index were calculated.

TROP2 [1] = assay: Immunocytochemistry of TROP2 in SUM159 cells; format: cell-based, human; conditions: 1 μM for 3 days
Description: SUM159 cells were treated with decitabine at 1 μM for 3 days. After cell fixation, cell pellet blocks were processed and probed with anti-TROP2 antibody, followed by hematoxylin staining.
After cell fixation, cell pellet blocks were processed and probed with anti-TROP2 antibody, followed by hematoxylin staining (FIG. 2D).
Formalin-fixed paraffin-embedded (FFPE) cell lines/tissue of 4-micron thickness slides were baked at 60° C. for 1 hour. IHC staining was performed using Leica BondRXm autostainer (Leica Biosystems) for further processing. In brief, after deparaffinized by bond dewax solution, epitope retrieval (HIER) was performed with citrate buffer pH6, followed by washing steps. After peroxidase blocking (3% H2O2) for 20 minutes, slides were incubated in TROP2 rabbit monoclonal [EPR20043], catalog #ab214488 with a 1:2000 dilution for 15 minutes at ambient temperature. After transient washing, post-primary and polymer incubation for 8 min, followed by hematoxylin staining and wash steps. Afterwards, the slides were unloaded from autostainer, air dried and cover slipped with mounting media (Cytoseal XYL mounting media).

TROP2 promoter = assay: Methylation-specific PCR of TROP2 promoter CpG region; conditions: BCX-010 cells; decitabine 1 μM; FIG. 3A
Description: Genomic DNA was extracted from BCX-010CL and BCX-011CL cells treated decitabine at 1 μM for 3 days, or from ZEB1 knockdown cells, and then subjected bisulfite CT conversion, followed by MSP using methylation specific primers specific to a CpG region in the TROP2 promoter. GAPDH was used as a control.
Following treatments, cells were lysed and genomic DNA (gDNA) was extracted using Genomic DNA Purification Kit (ThermoFisher) according to manufacturer's manual. Bisulfite CT conversion of quantitated gDNA was performed using EZ DNA Methylation Kit (Zymo Research) following manufacturer's manual. MSP of TROP2 promoter CpG region was performed using a methylation forward primer, a methylation reverse primer, an un-methylated forward primer, and an un-methylated reverse primer. PCR condition was set up as following: 94° C., 1 minute; [94° C., 30 seconds, 62° C., 30 seconds, 72° C., 45 seconds]×40 cycles; 72° C., 2 minutes, 4° C. About 200 bp PCR product was separated by 2% agarose gel.

[2] = test system: DNMT1, DNMT3A, and DNMT3B; assay: Immunoblotting of DNA methyltransferases (DNMTs); format: cell-based, human; conditions: breast cancer cell lines; 1 μM for 3 days; FIG. 3B
Description: as §1

BCX-010 cells = assay: Colony formation assay, BCX-010 control and Zeb1 knockdown; format: cell-based, human; conditions: BCX-010 control and Zeb1 knockdown cells; decitabine 5 nM, sacituzumab govitecan 20 nM, 14 days
Description: FIGS. 7A-7B show a colony assay of BCX-010 cells transfected with control shRNA (FIG. 7A) or Zeb1 shRNA (FIG. 7B) after treatment with vehicle, sacituzumab govitecan (20 nM), and/or decitabine (5 nM) for 14 days. After 14 days, cell colonies formed on the plates, were fixed with 10% formalin, and stained with 0.05% crystal violet. […] Annexin V positive apoptotic cells were measured by flow cytometry. Percentage of apoptotic cells over total cell populations was calculated.
In order to determine the effect of decitabine and/or Zeb1 knockdown treatment on sacituzumab govitecan activity, colony formation assays were performed in BCX-010 breast cancer cells. BCX-010 cells (control and Zeb1 knockdown) were seeded into 6-well plates at 1000 cells/well. Cells were treated with decitabine (5 nM) and/or sacituzumab govitecan ([…]) for 14 days. Culture medium with replaced with culture medium containing fresh drugs twice. After 14 days, cell colonies form on the plates were fixed with 10% formalin and stained with 0.05% crystal violet. Total colony area and colony number were quantified using ImageJ software.

[3] = test system: BCX-010, BCX-011 and Sum-159 cells; assay: Annexin V flow cytometry apoptosis assay; format: cell-based, human; conditions: decitabine 1 μM and/or sacituzumab govitecan 0.1 μM, three days; FIGS. 5A-5D
Description: In order to determine the effect of decitabine and/or Zeb1 knockdown treatment on sacituzumab govitecan activity, apoptosis was measured in breast cancer cell lines. BCX-010 cells (FIG. 5A and FIG. 5B), BCX-011 cells (FIG. 5C) and Sum-159 cells (FIG. 5D) were seeded in 6-cm plates, then treated with decitabine (1 μM) and/or sacituzumab govitecan (0.1 μM) for three days in an apoptosis assay. After the three day treatment, cells were stained with Annexin V. Flow cytometry was performed to sort Annexin V positive cells (apoptotic cells) (FIGS. 5A-5D). Percentage of apoptotic cells was calculated by Annexin V positive cells over total cell populations.
Cells were seeded in 6 cm plates at a density of 3×10^5 cells per well in triplicates for each treatment group. The following day, cells were treated with decitabine and SG at 1 μM and 0.1 μM respectively, or their combination. […] Using Annexin-V-FLUOS Staining Kit (Roche), cells were stained with Annexin V fluorescence and propidium iodide (PI), following manufacturer's protocol. Samples were analyzed by flow cytometry. Percentage of Annexin V positive apoptotic cells were calculated.
In apoptosis assay, cells were treated with decitabine at 1 μM, SG at 0.1 μM, or their combination for 3 days. Annexin V positive apoptotic cells were measured by flow cytometry. Percentage of apoptotic cells over total cell populations was calculated (FIG. 7D).

TROP2 [4] = assay: Immunoblotting of TROP2 protein in breast cancer cell lines; format: cell-based, human
Description: as §1
Five cell lines (BCX-011, BCX-010, Sum-159, BCX-010 transfected with control shRNA, and BCX-010 transfected with Zeb1 shRNA) were treated with decitabine (a DNA methyltransferase inhibitor) at 1 μM for 3 days (FIG. 1B). To knockdown Zeb1, BCX-010 cells were transduced with a lentivirus containing Zeb1 shRNA, followed by puromycin selection.
as §2, §3

[5] = test system: BCX-010CL, HCC-1954, HCC-1143, and MDA-MB-157 cells; assay: Cell survival assay of Sacituzumab govitecan with or without decitabine; format: cell-based, human; conditions: HCC-1954, HCC-1143, MDA-MB-157, decitabine co-treatment, 3 days, FIG. 10C
Description: BCX-010CL, HCC-1954, HCC-1143, and MDA-MB-157 cells were treated with Sacituzumab govitecan at serial dilutions, with or without decitabine co-treatment for 3 days. IC50s of individual agents and combination index were calculated.
Finally, BCX-010CL, HCC-1954, HCC-1143, and MDA-MB-157 cells were treated with Sacituzumab govitecan at serial dilutions, with or without decitabine co-treatment for 3 days. IC50s of individual agents and combination index were calculated.

SMILES: Nc1ncn([C@H]2C[C@H](O)[C@@H](CO)O2)c(=O)n1 [decitabine, 5-Aza-2′-deoxycytidine]
- SLFN11 expression (immunoblot) (SLFN11): increases SLFN11 expression
- colony formation (Sum-159 cells): inhibited cell colony formation in Sum-159 cells
- TROP2 mRNA expression (qPCR, normalized with GAPDH) (TROP2 mRNA): increased TROP2 mRNA expression in all cell lines
- E-cadherin expression (E-cadherin): increased E-cadherin expression
- sensitization of cells to SN-38 (cell survival) (BCX-010CL cells): sensitizes cells to SN-38 in BCX-010CL cells
- TROP2 expression (immunocytochemistry) (TROP2 [1]): increases TROP2 expression in SUM159 cells
- TROP2 promoter methylation (MSP) (TROP2 promoter): decreased TROP2 promoter methylation
- protein levels of DNMT1, DNMT3A, and DNMT3B [2]: decreased protein levels of three DNMT isoforms
- colony formation (BCX-010 cells): inhibited cell colony formation
- apoptosis (Annexin V positive cells) [3]: induced cell apoptosis in BCX-010 and Sum-159 cells
- TROP2 protein expression (TROP2 [4]; 1 μM for 3 days, BCX-011, BCX-010, Sum-159, BCX-010 control shRNA, BCX-010 Zeb1 shRNA, FIG. 1B): increased TROP2 protein expression in all 5 cell lines
- TROP2 expression, panel of epigenetic modulators (immunoblot) (TROP2 [4]; BCX-010CL, BCX-011CL, SUM159 cells, 3 days, FIG. 1D): most effective enhancer of TROP2 expression
- sensitization of cells to Sacituzumab govitecan (cell survival) [5]: sensitizes cells to Sacituzumab govitecan in breast cancer cell lines
